Laboratory results as given in PMC4225490, “Crystal structure of the γ-hydroxymuconic semialdehyde dehydrogenase from Pseudomonas sp. strainWBC-3, a key enzyme involved in para-Nitrophenol degradation” (BMC Structural Biology, 2013).

Columns and labels:
[1] = molecular target: T1, PnpE, γ-hydroxymuconic semialdehyde dehydrogenase (Pseudomonas sp. WBC-3, UniProt C1I208); assay: X-ray crystal structure, […] Å; format: binding; conditions: co-crystallised with 1 mM NAD, 0.1 M Bicine pH 8.5, 20% PEG10000, 20 °C; cofactor site
T1 construct: recombinant His-tagged in E. coli BL21(DE3), pET29b NdeI/XhoI; Ni-NTA, Source-Q, Superdex-200; homodimer (four dimers per asymmetric unit)
T1 sequence (C1I208 1-487): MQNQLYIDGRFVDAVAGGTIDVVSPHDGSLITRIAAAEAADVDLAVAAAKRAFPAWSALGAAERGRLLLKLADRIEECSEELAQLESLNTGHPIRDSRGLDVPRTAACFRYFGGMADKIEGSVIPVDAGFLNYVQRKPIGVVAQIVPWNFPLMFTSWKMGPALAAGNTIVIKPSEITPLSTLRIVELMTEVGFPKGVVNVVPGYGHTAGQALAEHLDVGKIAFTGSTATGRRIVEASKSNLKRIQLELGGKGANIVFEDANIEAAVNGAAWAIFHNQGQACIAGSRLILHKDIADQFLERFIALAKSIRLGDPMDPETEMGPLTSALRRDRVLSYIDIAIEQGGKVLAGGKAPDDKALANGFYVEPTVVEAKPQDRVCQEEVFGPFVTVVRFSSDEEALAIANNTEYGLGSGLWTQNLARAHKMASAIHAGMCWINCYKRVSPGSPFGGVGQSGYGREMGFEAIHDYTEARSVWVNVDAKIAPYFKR

[2] = molecular target: γ-hydroxymuconic semialdehyde dehydrogenase PnpE from Pseudomonas sp. strain WBC-3 (Pseudomonas sp. strain WBC-3); assay: crystal structure; apo-PnpE, space group P21, 2.7 Å; eight monomers in the asymmetric unit; crystals grown from 20% PEG3350, 0.2 M KNO3 at 20°C

Question: Which “X-ray crystal structure, 3.1 Å” value [1] does the source give for `NC(=O)c1ccc[n+]([C@@H]2O[C@H](COP(=O)(O)OP(=O)(O)OC[C@H]3O[C@@H](n4cnc5c(N)ncnc54)[C@H](O)[C@@H]3O)[C@@H](O)[C@H]2O)c1` [NAD] here?
Answer: In the PnpE-NAD complex structure, NAD is situated in a cleft of PnpE.

Question: How did the stoichiometry N [2] turn out when “γ-hydroxymuconic semialdehyde dehydrogenase PnpE from Pseudomonas sp. strain WBC-3 (enzyme)” was run?
Answer: 2
